From PMC10734772 (Turkish Journal of Chemistry, 2021)

| Compound | melting point [°C] |
| --- | --- |
| Cc1ccc(NC(=O)c2ccc(CN3CCOCC3)cc2)cc1Br [Compound 4c, N-(3-Bromo-4-methylphenyl)-4-(morpholinomethyl)benzamide] | 116 |
| Cc1ccc(NC(=O)c2ccc(CN3CCN(c4ncccn4)CC3)cc2)cc1Br [Compound 4a, N-(3-Bromo-4-methylphenyl)-4-((4-(pyrimidin-2-yl)piperazin-1-yl)methyl)benzamide] | 105 |
| COc1ccc(CN2CCN(Cc3ccc(C(=O)Nc4ccc(C)c(Br)c4)cc3)CC2)c(OC)c1OC [Compound 4b, N-(3-Bromo-4-metylphenyl)-4-((4-(2,3,4-trimethoxybenzyl)piperazin-1-yl)methyl)benzamide] | 135 |
